Reference: patent publication US12343326B2, “Psychoactive medicines and their use for treating psychiatric and neurological conditions and disorders” (Transcend Therapeutics, Inc., priority 2021, dated 2025)

Tests used:
Assay in all cases: β-arrestin based GPCR screen (PathHunter / GPCRmax), antagonist mode
168 GPCRs [1] = molecular target: 168 GPCRs (Homo sapiens, UniProt P21452)
168 GPCRs [2] = molecular target: 168 GPCRs (Homo sapiens, UniProt P21453)
168 GPCRs [3] = molecular target: 168 GPCRs (Homo sapiens, UniProt P21918)
Sequence of 168 GPCRs (Homo sapiens, UniProt P21918) (P21918 whole entry): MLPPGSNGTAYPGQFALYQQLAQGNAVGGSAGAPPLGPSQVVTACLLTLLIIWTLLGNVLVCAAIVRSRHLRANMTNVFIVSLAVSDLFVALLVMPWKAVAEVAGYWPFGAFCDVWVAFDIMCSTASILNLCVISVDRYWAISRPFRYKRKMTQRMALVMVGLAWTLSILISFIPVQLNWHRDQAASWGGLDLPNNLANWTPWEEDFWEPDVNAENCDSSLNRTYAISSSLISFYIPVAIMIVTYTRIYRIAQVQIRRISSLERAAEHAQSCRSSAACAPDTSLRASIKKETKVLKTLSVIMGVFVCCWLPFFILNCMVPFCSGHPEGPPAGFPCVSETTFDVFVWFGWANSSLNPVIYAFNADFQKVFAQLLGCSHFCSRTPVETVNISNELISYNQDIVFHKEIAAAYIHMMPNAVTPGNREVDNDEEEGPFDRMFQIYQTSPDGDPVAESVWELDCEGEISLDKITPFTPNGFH

168 GPCRs [4] = molecular target: 168 GPCRs (Homo sapiens, UniProt P22888); settings: LHCGR
Sequence of 168 GPCRs (Homo sapiens, UniProt P22888) (P22888 27-699): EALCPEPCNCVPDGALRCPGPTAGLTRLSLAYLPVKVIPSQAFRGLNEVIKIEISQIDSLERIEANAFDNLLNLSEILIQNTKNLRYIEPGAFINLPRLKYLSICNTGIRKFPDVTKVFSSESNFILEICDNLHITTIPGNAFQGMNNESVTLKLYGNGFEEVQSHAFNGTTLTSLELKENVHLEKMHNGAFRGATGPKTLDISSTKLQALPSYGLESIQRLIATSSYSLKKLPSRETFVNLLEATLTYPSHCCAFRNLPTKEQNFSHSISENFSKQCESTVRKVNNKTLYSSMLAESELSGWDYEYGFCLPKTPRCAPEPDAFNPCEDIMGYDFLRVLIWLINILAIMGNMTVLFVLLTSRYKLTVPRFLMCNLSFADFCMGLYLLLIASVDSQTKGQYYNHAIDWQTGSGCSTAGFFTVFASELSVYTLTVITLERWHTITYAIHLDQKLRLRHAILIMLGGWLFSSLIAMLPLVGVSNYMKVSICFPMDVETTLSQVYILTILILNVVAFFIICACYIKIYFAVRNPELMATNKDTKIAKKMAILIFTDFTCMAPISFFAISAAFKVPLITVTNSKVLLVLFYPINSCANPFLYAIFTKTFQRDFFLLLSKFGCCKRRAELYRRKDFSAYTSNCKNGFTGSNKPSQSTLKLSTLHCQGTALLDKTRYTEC

168 GPCRs [5] = molecular target: 168 GPCRs (Homo sapiens, UniProt P25021)
Sequence of 168 GPCRs (Homo sapiens, UniProt P25021) (P25021 whole entry): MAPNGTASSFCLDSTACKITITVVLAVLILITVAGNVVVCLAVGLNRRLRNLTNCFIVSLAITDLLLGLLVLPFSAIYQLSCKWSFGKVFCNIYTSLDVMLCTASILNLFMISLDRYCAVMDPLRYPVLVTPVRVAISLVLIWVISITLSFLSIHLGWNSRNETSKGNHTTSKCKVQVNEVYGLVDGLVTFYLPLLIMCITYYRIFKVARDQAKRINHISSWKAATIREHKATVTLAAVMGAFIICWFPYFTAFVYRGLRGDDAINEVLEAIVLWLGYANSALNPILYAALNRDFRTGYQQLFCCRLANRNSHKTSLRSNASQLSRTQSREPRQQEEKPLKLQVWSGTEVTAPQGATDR

168 GPCRs [6] = molecular target: 168 GPCRs (Homo sapiens, UniProt P25106)
Sequence of 168 GPCRs (Homo sapiens, UniProt P25106) (P25106 whole entry): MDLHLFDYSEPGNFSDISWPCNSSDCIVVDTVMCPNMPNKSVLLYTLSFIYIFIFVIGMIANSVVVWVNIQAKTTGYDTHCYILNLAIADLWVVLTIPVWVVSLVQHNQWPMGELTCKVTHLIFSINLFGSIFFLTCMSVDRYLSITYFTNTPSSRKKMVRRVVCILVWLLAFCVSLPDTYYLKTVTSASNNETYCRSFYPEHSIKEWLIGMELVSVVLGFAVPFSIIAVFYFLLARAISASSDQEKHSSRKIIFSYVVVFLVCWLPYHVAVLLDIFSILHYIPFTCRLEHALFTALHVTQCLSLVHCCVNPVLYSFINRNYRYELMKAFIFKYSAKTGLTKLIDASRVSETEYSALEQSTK

168 GPCRs [7] = molecular target: 168 GPCRs (Homo sapiens, UniProt P25929); settings: NPY1R
Sequence of 168 GPCRs (Homo sapiens, UniProt P25929) (P25929 whole entry): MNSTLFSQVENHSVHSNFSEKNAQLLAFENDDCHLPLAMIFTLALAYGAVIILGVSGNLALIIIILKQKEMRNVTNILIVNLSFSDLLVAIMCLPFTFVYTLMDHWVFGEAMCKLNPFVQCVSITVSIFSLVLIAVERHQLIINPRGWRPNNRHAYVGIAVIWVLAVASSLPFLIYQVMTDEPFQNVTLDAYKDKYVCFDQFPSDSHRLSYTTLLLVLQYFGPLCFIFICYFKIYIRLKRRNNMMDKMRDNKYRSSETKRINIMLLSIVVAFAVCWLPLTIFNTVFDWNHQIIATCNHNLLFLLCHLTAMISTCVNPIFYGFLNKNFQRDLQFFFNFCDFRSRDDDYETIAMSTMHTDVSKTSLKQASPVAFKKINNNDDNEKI

168 GPCRs [8] = molecular target: 168 GPCRs (Homo sapiens, UniProt P32241)
168 GPCRs [9] = molecular target: 168 GPCRs (Homo sapiens, UniProt P32246); settings: CCR1, Antagonist
168 GPCRs [10] = molecular target: 168 GPCRs (Homo sapiens, UniProt P35408)
168 GPCRs [11] = molecular target: 168 GPCRs (Homo sapiens, UniProt P35414); settings: AGTRL1, Antagonist
Sequence of 168 GPCRs (Homo sapiens, UniProt P35414) (P35414 whole entry): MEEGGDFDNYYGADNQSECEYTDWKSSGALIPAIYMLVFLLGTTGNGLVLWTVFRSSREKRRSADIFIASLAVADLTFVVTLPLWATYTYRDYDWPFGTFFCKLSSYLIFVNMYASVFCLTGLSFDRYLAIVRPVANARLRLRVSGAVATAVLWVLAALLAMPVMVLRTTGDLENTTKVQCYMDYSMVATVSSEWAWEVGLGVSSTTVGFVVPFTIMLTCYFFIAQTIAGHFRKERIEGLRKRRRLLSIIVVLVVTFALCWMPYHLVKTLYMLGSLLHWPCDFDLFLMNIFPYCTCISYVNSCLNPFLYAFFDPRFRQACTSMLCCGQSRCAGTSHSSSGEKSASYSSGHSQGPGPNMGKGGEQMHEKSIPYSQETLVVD

168 GPCRs [12] = molecular target: 168 GPCRs (Homo sapiens, UniProt P41231)
168 GPCRs [13] = molecular target: 168 GPCRs (Homo sapiens, UniProt P46092); settings: CCR10, Antagonist
Sequence of 168 GPCRs (Homo sapiens, UniProt P46092) (P46092 whole entry): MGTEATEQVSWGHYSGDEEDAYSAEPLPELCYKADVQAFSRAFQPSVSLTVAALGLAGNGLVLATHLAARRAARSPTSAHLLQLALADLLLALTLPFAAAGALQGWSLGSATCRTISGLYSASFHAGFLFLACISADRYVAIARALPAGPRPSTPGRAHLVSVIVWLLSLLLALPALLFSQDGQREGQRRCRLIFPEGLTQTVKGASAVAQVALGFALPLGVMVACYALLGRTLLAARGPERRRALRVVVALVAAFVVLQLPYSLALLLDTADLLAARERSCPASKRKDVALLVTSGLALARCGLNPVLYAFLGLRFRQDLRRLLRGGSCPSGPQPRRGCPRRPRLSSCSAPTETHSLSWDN

168 GPCRs [14] = molecular target: 168 GPCRs (Homo sapiens, UniProt P47901); settings: AVPR1B, Antagonist
Sequence of 168 GPCRs (Homo sapiens, UniProt P47901) (P47901 whole entry): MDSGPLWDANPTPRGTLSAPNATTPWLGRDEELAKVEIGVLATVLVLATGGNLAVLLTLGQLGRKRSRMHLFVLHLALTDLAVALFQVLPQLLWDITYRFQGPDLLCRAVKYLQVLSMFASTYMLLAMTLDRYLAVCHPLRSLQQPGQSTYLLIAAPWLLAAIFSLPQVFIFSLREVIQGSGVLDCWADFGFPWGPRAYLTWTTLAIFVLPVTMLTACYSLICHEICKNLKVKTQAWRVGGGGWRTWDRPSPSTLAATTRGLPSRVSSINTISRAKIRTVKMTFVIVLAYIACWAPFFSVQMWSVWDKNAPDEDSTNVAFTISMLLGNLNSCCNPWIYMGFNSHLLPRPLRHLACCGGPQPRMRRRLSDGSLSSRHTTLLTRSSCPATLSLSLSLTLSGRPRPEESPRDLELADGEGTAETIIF

168 GPCRs [15] = molecular target: 168 GPCRs (Homo sapiens, UniProt P48039); settings: MTNR1A
168 GPCRs [16] = molecular target: 168 GPCRs (Homo sapiens, UniProt P48146)
168 GPCRs [17] = molecular target: 168 GPCRs (Homo sapiens, UniProt P49146); settings: NPY2R
Sequence of 168 GPCRs (Homo sapiens, UniProt P49146) (P49146 whole entry): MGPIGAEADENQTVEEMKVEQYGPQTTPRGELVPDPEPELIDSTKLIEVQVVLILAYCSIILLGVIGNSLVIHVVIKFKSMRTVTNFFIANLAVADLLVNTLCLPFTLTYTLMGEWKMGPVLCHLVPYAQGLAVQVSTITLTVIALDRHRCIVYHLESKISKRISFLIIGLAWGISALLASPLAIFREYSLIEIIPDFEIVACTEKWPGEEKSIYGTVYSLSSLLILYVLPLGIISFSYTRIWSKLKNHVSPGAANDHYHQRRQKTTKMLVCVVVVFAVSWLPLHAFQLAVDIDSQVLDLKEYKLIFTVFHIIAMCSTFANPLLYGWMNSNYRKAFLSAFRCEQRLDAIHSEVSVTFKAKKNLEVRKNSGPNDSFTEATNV

168 GPCRs [18] = molecular target: 168 GPCRs (Homo sapiens, UniProt P51679); settings: CCR4, Antagonist
168 GPCRs [19] = molecular target: 168 GPCRs (Homo sapiens, UniProt Q01726); settings: MC1R
Sequence of 168 GPCRs (Homo sapiens, UniProt Q01726) (Q01726 whole entry): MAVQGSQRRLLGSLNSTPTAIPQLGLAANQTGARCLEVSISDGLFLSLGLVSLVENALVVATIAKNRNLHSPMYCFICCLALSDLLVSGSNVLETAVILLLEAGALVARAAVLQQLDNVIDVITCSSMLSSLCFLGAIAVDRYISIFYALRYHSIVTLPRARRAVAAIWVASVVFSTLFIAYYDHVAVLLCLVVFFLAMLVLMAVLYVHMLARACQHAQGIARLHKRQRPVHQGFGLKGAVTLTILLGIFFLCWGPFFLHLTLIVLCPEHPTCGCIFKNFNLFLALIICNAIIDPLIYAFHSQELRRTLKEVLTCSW

168 GPCRs [20] = molecular target: 168 GPCRs (Homo sapiens, UniProt Q8TDS4); settings: GPR109A
168 GPCRs [21] = molecular target: 168 GPCRs (Homo sapiens, UniProt Q96LB1)
168 GPCRs [22] = molecular target: 168 GPCRs (Homo sapiens, UniProt Q99788); settings: CMKLR1, Antagonist
Sequence of 168 GPCRs (Homo sapiens, UniProt Q99788) (Q99788 whole entry): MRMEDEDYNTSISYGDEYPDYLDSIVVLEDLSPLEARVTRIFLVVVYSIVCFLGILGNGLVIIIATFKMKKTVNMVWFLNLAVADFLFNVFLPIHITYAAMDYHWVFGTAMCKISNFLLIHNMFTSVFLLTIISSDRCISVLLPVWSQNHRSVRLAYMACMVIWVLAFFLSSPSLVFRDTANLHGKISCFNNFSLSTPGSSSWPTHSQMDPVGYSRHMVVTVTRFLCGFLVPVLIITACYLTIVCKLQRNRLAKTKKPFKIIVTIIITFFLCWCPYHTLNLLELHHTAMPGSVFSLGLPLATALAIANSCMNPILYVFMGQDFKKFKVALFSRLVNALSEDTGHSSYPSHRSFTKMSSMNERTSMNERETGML

168 GPCRs [23] = system: 168 GPCRs

Sequence of 168 GPCRs (Homo sapiens, UniProt P21453) (P21453 whole entry): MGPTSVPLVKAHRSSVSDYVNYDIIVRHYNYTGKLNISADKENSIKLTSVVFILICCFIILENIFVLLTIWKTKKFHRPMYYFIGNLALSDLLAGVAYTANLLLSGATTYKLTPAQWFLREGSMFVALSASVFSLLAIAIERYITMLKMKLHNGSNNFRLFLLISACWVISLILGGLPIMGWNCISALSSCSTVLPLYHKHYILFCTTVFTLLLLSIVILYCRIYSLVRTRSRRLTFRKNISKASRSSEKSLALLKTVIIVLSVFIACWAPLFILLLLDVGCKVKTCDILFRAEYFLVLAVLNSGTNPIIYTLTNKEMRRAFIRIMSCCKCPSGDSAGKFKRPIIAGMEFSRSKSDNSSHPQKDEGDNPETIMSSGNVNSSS

SMILES: CNC(C)C(=O)c1ccc2c(c1)OCO2 (stereo not shown) [methylone, 3,4-methylenedioxy-N-methylcathinone]
- activity at 10 µM (168 GPCRs [1]; TACR2, Antagonist mode, 10 uM): 9.1%
- activity at 1 µM (168 GPCRs [1]; TACR2, Antagonist, 1 uM): 10%
- activity at 10 µM (168 GPCRs [2]; EDG1, Antagonist mode, 10 uM): 10.5%
- activity at 1 µM (168 GPCRs [2]; EDG1, Antagonist, 1 uM): 12.4%
- activity at 10 µM (168 GPCRs [3]; DRD5, Antagonist mode, 10 uM): -2.6%
- activity at 1 µM (168 GPCRs [3]; DRD5, Antagonist, 1 uM): -5.9%
- activity at 10 µM (168 GPCRs [4]; Antagonist mode, 10 uM): 11.2%
- activity at 1 µM (168 GPCRs [4]; Antagonist, 1 uM): 13.8%
- activity at 10 µM (168 GPCRs [5]; HRH2, Antagonist mode, 10 uM): 8.1%
- activity at 1 µM (168 GPCRs [5]; HRH2, Antagonist, 1 uM): 7.1%
- activity at 10 µM (168 GPCRs [6]; CXCR7, Antagonist mode, 10 uM): 7.3%
- activity at 1 µM (168 GPCRs [6]; CXCR7, Antagonist, 1 uM): 14.1%
- activity at 10 µM (168 GPCRs [7]; Antagonist mode, 10 uM): 5.4%
- activity at 1 µM (168 GPCRs [7]; Antagonist, 1 uM): 0.2%
- activity at 10 µM (168 GPCRs [8]; VIPR1, Antagonist mode, 10 uM): 5.3%
- activity at 1 µM (168 GPCRs [8]; VIPR1, Antagonist, 1 uM): -0.7%
- activity at 1 µM (168 GPCRs [9]; 1 uM): -8.1%
- activity at 10 µM (168 GPCRs [9]; 10 uM): -16.6%
- activity at 10 µM (168 GPCRs [10]; PTGER4, Antagonist mode, 10 uM): 4.3%
- activity at 1 µM (168 GPCRs [10]; PTGER4, Antagonist, 1 uM): 10.1%
- activity at 1 µM (168 GPCRs [11]; 1 uM): -3.3%
- activity at 10 µM (168 GPCRs [11]; 10 uM): -4.1%
- activity at 10 µM (168 GPCRs [12]; P2RY2, Antagonist mode, 10 uM): 1.8%
- activity at 1 µM (168 GPCRs [12]; P2RY2, Antagonist, 1 uM): 5.4%
- activity at 1 µM (168 GPCRs [13]; 1 uM): 5.4%
- activity at 10 µM (168 GPCRs [13]; 10 uM): 2.6%
- activity at 1 µM (168 GPCRs [14]; 1 uM): 9.8%
- activity at 10 µM (168 GPCRs [14]; 10 uM): 3.5%
- activity at 10 µM (168 GPCRs [15]; Antagonist mode, 10 uM): 7.8%
- activity at 1 µM (168 GPCRs [15]; Antagonist, 1 uM): 30.8%
- activity at 10 µM (168 GPCRs [16]; NPBWR2, Antagonist mode, 10 uM): -14%
- activity at 1 µM (168 GPCRs [16]; NPBWR2, Antagonist, 1 uM): -14.1%
- activity at 10 µM (168 GPCRs [17]; Antagonist mode, 10 uM): 2%
- activity at 1 µM (168 GPCRs [17]; Antagonist, 1 uM): 2.3%
- activity at 1 µM (168 GPCRs [18]; 1 uM): 10%
- activity at 10 µM (168 GPCRs [18]; 10 uM): 9.5%
- activity at 10 µM (168 GPCRs [19]; Antagonist mode, 10 uM): 15.9%
- activity at 1 µM (168 GPCRs [19]; Antagonist, 1 uM): 20.1%
- activity at 10 µM (168 GPCRs [20]; Antagonist mode, 10 uM): -0.3%
- activity at 1 µM (168 GPCRs [20]; Antagonist, 1 uM): 1.4%
- activity at 10 µM (168 GPCRs [21]; MRGPRX2, Antagonist mode, 10 uM): 8.9%
- activity at 1 µM (168 GPCRs [21]; MRGPRX2, Antagonist, 1 uM): 16.2%
- activity at 1 µM (168 GPCRs [22]; 1 uM): -0.2%
- activity at 10 µM (168 GPCRs [22]; 10 uM): -5.6%
- antagonist activity at any of the 168 GPCRs (criterion >50% inhibition) (168 GPCRs [23]; 1 and 10 micromolar): did not meet criteria for agonist or antagonist activity
- % Activity (168 GPCRs [23]; DRD2S, Antagonist mode, 10 uM): −11.6%
- % Activity (168 GPCRs [23]; DRD2S, Antagonist, 1 uM): 3.6%
- % Activity (168 GPCRs [23]; NPSR1b, Antagonist mode, 10 uM): −7.6%
- % Activity (168 GPCRs [23]; NPSR1b, Antagonist, 1 uM): −10.6%
